In publication PMC4169639 (BMC Biology, 2014):

How the values were obtained:
[1] = target: T1, PCTP START domain (GSV-PCTP) (Homo sapiens, UniProt Q9UKL6); test: IgG-bead immunoisolation from yeast lysate, LC-MS of bound metabolites; format: binding; settings: endogenous yeast metabolite, enriched over GV control
T1 sequence (Q9UKL6 1-212 limits assumed): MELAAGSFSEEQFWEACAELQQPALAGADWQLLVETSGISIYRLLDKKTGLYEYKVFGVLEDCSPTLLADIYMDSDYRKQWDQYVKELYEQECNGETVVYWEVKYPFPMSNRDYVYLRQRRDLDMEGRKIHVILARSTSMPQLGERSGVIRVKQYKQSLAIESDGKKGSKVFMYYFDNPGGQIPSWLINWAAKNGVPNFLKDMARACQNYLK

[2] = target: T2, StAR START domain (GSV-StAR) (Mus musculus, UniProt P51557); test: as above; format: binding; settings: endogenous yeast metabolite, enriched over GV control
T2 sequence (P51557 66-274 limits assumed): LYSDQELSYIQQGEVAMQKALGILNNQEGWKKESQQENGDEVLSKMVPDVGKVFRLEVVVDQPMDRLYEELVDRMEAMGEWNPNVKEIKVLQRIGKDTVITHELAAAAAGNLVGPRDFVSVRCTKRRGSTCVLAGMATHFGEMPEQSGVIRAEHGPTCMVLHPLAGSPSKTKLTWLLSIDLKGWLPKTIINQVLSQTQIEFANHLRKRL

Structure (SMILES) | IgG-bead immunoisolation from yeast lysate, LC-MS of bound metabolites [1] | IgG-bead immunoisolation from yeast lysate, LC-MS of bound metabolites [2]
CC(C)=CCC[C@@H](C)[C@H]1CC[C@@]2(C)C3=C(CC[C@]12C)[C@@]1(C)CC[C@H](O)C(C)(C)[C@@H]1CC3 [lanosterol] | several metabolites that were shared with StAR (e.g. lanosterol, squalene | lanosterol and squalene, were also significantly enriched for the START domain from StAR
CCCCC/C=C\C/C=C\CCCCCCCC(N)=O [linoleamide] | lipids including sphinganine, sphingosine, behenic acid and linoleamide | –
CC(C)=CCC/C(C)=C/CC/C(C)=C/CC/C=C(\C)CC/C=C(\C)CCC=C(C)C [squalene] | several metabolites that were shared with StAR (e.g. lanosterol, squalene | lanosterol and squalene, were also significantly enriched for the START domain from StAR
